Assay results taken from patent publication US20050000154A1, “Apparatus and methods for enhanced plant and lawn growth using alkane injection” (Global BioSciences, Inc., priority 2001, published 2005).
Several values for one entry are separate records, joined by “and”; a condition that tells them apart may be missing. Identical values can stand only once. Like-named read-outs stand apart in the source and are kept apart here.

Experiments:
Gladioli bulb [1] = details: liquid butane injected into the rhizosphere, halted Day 19
Procedure: Each vessel was filled with approximately 800 cm^3 of Pro-Mix® Potting Soil 214.
(§1) Each vessel contained one Gladioli bulb 216 placed at a depth of 10 cm below soil surface. FIG. 21 is a photograph showing the bulbs and vessels. Each vessel was then watered with 100 ml spring water and positioned on its own drainage tray on a shelf approximately 60 cm below two 33 watt grow light tubes (no sunlight) equipped with a timer set for 16 hours light on, 6 hours light off.

[2] = test system: sunflower (Sun Gold-Golden Yellow Double) seed; details: for Seedling Height / germination: sterilized Caribbean Beach Sand
Procedure: Four vessels were filled with approximately 800 cm^3 of Paver Construction Sand (non-sterile) and two vessels contained sterilized Caribbean beach sand (see FIG. 23).
as §1, with “one sunflower (Sun Gold-Golden Yellow Double) seed” for “one Gladioli bulb 216”, “of 5.0” for “of 10”, “surface.” for “surface. FIG. 21 is a photograph showing the bulbs and vessels.”

[3] = test system: sweet corn, variety Sugar Dots; details: for Seedling Height: two seedlings
Procedure: (§2) The tubing intersected the vessel through the diameter at a height of 3.5 cm above the base. […] Each vessel was filled with approximately 902 cm^3 of Iowa Crop Soil (soil depth =9.5 cm) that had been collected from an Iowa commercial cornfield. The soil in each vessel was tested for pH using a Chemetrics pH meter dipped in a mixture of 40 ml distilled water and 100 grams of soil.
(§3) Each vessel was seeded with two seeds of sweet corn, variety Sugar Dots, (using the seed positions shown in FIG. 9) placed at a depth of 2.54 cm below soil surface. Each vessel was then watered with 100 ml spring water and positioned on its own drainage tray on a shelf approximately 10 cm below three 33 watt grow light tubes (no sunlight) equipped with a timer set for 16 hours light on, 6 hours light off. White reflective covering was placed on the wall immediately behind the samples, with an aluminum foil hood extending over the light fixture to reflect light downward onto the vessels.

Gladioli bulb [4] = test system: Gladioli bulb
Procedure: Each vessel was filled with approximately 800 cm^3 of Pro-Mix® Potting Soil (see FIGS. 20 and 21).
as §1, with “bulb” for “bulb 216”, “surface.” for “surface. FIG. 21 is a photograph showing the bulbs and vessels.”

[5] = test system: sweet corn, variety Sugar Dots; details: for Seedling Height: two seedlings; remark: listed apart in the source
Procedure: as §2, with “1.5” for “3.5”, “523” for “902”, “=5.5” for “=9.5”
as §3, with “placed (illustrated” for “(using the seed positions shown”, “9)” for “9) placed”, “two” for “three”

[6] = Table 7 Day No. 6 (final day), Butane Bulb 1 and 2

`CCCC` [Butane, n-butane] was tested, and the “effect of liquid butane injection on growing plants” value (Gladioli bulb [1]; listed as Liquid butane) was “into the rhizosphere killed the”, the “effect of liquid butane injection on growing plants” value (Gladioli bulb [1]; listed as liquid butane) was “killed” and the “root development compared with control plant” value ([2]; Day 23, Paver Sand, unearthed) was “thicker and more robust”. For the same molecule, the “Seedling Height” value ([2]; Day No. 23, Paver Sand (non-sterile), two plants) was 20.0 cm, the “Seedling Height / germination” value ([2]; Day No. 23) was “no seed growth or” and the “Seedling Height / germination” value ([2]; Day No. 23, listed as butane) was “No seed growth or germination”. The “average height taller than the control corn plant” value ([3]; Day 16) was 55%, the “average growth in height” value ([3]; Day 16, average of two plants) was 23.3 cm and the “Seedling Height” value ([3]; Day No. 5) was 0.5 cm and 1.0 cm. The “Seedling Height” value ([3]; Day No. 6) was 3.0 cm, 3.0 cm, the “Seedling Height” value ([3]; Day No. 7) was 4.0 cm, 4.0 cm and the “Seedling Height” value ([3]; Day No. 8) was 6.0 cm and 5.7 cm. For the same molecule, the “Seedling Height” value ([3]; Day No. 9) was 8.0 cm and 7.2 cm, the “Seedling Height” value ([3]; Day No. 10) was 11.0 cm and 9.1 cm and the “Seedling Height” value ([3]; Day No. 11) was 16.0 cm and 12 cm. The “Seedling Height” value ([3]; Day No. 12) was 18.0 cm and 15.5 cm, the “Seedling Height” value ([3]; Day No. 13) was 19.0 cm and 16.7 cm and the “Seedling Height” value ([3]; Day No. 14) was 20.1 cm and 17.3 cm. The “Seedling Height” value ([3]; Day No. 15) was 22.0 cm and 18.0 cm, the “Seedling Height” value ([3]; Day No. 16) was 27.0 cm and 19.6 cm and the “time of sprouting compared with control plant” value ([3]; in vivo) was “three days earlier”. For the same molecule, the stem thickness ([3]; last day of growth (Day 16), taller plant, shorter plant) was 0.5 cm and 0.3 cm, the average growth rate ([3]; over the sixteen-day period, average of two plants) was 1.45 cm per day and the root branch length ([3]; seen through clear vessels) was “up to 3 cm”. For the same molecule, the “faster growth rate than the control plant” value ([3]; sixteen-day period) was 54%, the seed sprouting ([3]; two seeds planted) was “sprouted into seedlings” and the “Seedling Height, secondary shoot” value (Gladioli bulb [4]; Table 7 Day No. 1, Butane Bulb 2) was “Secondary shoot 3.0 cm”. The “Seedling Height, main shoot” value (Gladioli bulb [4]; [6]) was 27.0 cm and 29.0 cm, the “Seedling Height, secondary shoot” value (Gladioli bulb [4]; [6]) was 14.0 cm and 23.0 cm and the “root development compared with control plant” value (Gladioli bulb [4]; butane enrichment for 17 days, bulbs unearthed) was “greater”. For the same molecule, the bulb shoot bifurcation (Gladioli bulb [4]; butane gas injection, shoots directly from the bulb sphere) was “conditioned to grow two plants”, the “Seedling Height” value ([5]; Day No. 6, n-butane injected into root zone) was 0.5 cm and 0.8 cm and the “Seedling Height” value ([5]; Day No. 7) was 4.0 cm and 4.5 cm. The “Seedling Height” value ([5]; Day No. 8) was 7.0 cm and 6.0 cm, the “Seedling Height” value ([5]; Day No. 9 (final day)) was 11.0 cm and 6.8 cm and the “Seedling Height” value ([5]; Day No. 9 (final day), listed as butane) was 11 cm and 6.8 cm. For the same molecule, the “root spread compared with control plants” value ([5]; seen through clear vessels) was “greater and more complex degree horizontally”.
